Data reported in the supplement of paper PMC10307832.

Columns and labels:
Test in all cases: relative viability (nuclei count vs DMSO), 5 days (fraction); higher = more cells survive
Daporinad + Olaparib = compound: O=C(/C=C/c1cccnc1)NCCCCC1CCN(C(=O)c2ccccc2)CC1 [Daporinad] + O=C(c1cc(Cc2n[nH]c(=O)c3ccccc23)ccc1F)N1CCN(C(=O)C2CC2)CC1 [Olaparib] (partner 8 µM)
Outline: (§1)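 Relative viability is defined as nuclei in treated wells over nuclei in vehicle wells. Duplicate plates were run and medians reported. Lung cancer cell lines in 1536-well plates were dosed by pin tool one day after seeding, with one drug or with a fixed anchor-drug dose plus five library-drug doses (not always all listed) in √10 steps, and nuclei were counted after 5 days.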

Daporinad + Tozasertib = compound: O=C(/C=C/c1cccnc1)NCCCCC1CCN(C(=O)c2ccccc2)CC1 [Daporinad] + Cc1cc(Nc2cc(N3CCN(C)CC3)nc(Sc3ccc(NC(=O)C4CC4)cc3)n2)n[nH]1 [Tozasertib] (partner 0.1 µM)
Outline: as §1

R406 + Lapatinib = compound: COc1cc(Nc2ncc(F)c(Nc3ccc4c(n3)NC(=O)C(C)(C)O4)n2)cc(OC)c1OC [R406] + CS(=O)(=O)CCNCc1ccc(-c2ccc3ncnc(Nc4ccc(OCc5cccc(F)c5)c(Cl)c4)c3c2)o1 [Lapatinib] (partner 2 µM)
Outline: as §1

Daporinad + Alpelisib = compound: O=C(/C=C/c1cccnc1)NCCCCC1CCN(C(=O)c2ccccc2)CC1 [Daporinad] + Cc1nc(NC(=O)N2CCC[C@H]2C(N)=O)sc1-c1ccnc(C(C)(C)C(F)(F)F)c1 [Alpelisib] (partner 2 µM)
Outline: as §1

| Cell Line | relative viability (Daporinad + Olaparib; first compound 0.0005 µM) | relative viability (Daporinad + Olaparib; first compound 0.001581 µM) | relative viability (Daporinad + Olaparib; first compound 0.005 µM) | relative viability (Daporinad + Olaparib; first compound 0.01581 µM) | relative viability (Daporinad + Tozasertib; first compound 0.0005 µM) | relative viability (Daporinad + Tozasertib; first compound 0.001581 µM) | relative viability (Daporinad + Tozasertib; first compound 0.005 µM) | relative viability (Daporinad + Tozasertib; first compound 0.01581 µM) | relative viability (R406 + Lapatinib; first compound 0.08 µM) | relative viability (R406 + Lapatinib; first compound 0.253 µM) | relative viability (R406 + Lapatinib; first compound 0.8 µM) | relative viability (R406 + Lapatinib; first compound 2.53 µM) | relative viability (R406 + Lapatinib; first compound 8 µM) | relative viability (Daporinad + Alpelisib; first compound 0.0005 µM) | relative viability (Daporinad + Alpelisib; first compound 0.001581 µM) | relative viability (Daporinad + Alpelisib; first compound 0.005 µM) | relative viability (Daporinad + Alpelisib; first compound 0.01581 µM) |
| --- | --- | --- | --- | --- | --- | --- | --- | --- | --- | --- | --- | --- | --- | --- | --- | --- | --- |
| NCI-H23 | 0.221 | 0.245 | 0.238 | 0.172 | 0.421 | 0.374 | 0.424 | 0.295 | 1.12 | 1.54 | 1.28 | 0.589 | 0.593 | 0.69 | 0.776 | 0.782 | 0.416 |
| NCI-H322M | 0.547 | 0.567 | 0.547 | 0.516 | 0.572 | 0.485 | 0.396 | 0.312 | 0.543 | 0.51 | 0.647 | 0.335 | 0.343 | 0.757 | 0.945 | 0.85 | 0.769 |
| NCI-H358 | 0.556 | 0.507 | 0.351 | 0.293 | 0.0969 | 0.0872 | 0.11 | 0.0799 | 0.407 | 0.441 | 0.47 | 0.375 | 0.2 | 0.833 | 0.984 | 0.887 | 0.834 |
| NCI-H441 | 0.488 | 0.554 | 0.344 | 0.237 | 0.512 | 0.646 | 0.718 | 0.668 |  |  |  |  |  |  | 0.603 | 0.754 | 0.717 |
| NCI-H522 | 0.659 | 0.621 | 0.573 | 0.49 | 0.599 | 0.533 | 0.484 | 0.433 |  |  |  |  |  |  |  |  |  |
| NCI-H1299 | 0.972 | 0.857 | 0.904 | 0.855 |  |  |  |  | 1.01 | 0.982 | 0.98 | 0.933 | 0.721 | 1.15 | 1.06 | 1.04 | 1.1 |
